{"source": "patent US5861481A", "about": "“Peptide lung surfactants and therapeutic combinations” (Merrell Pharmaceuticals Inc., priority 1997, dated 1999)", "system": "adult rat lavaged lungs", "experiment": "Isolated rat lavaged lung model (pressure-volume curves)", "method": "Preparation of Artificial Surfactants. For triplicate samples of the synthetic lung surfactants 75 mg of DPPC (L-α-dipalmitoylphosphatidylcholine; >99% pure; Avanti Polar Lipids, Birmingham, Ala.) in 1 ml of chloroform were dried under a stream of nitrogen and placed in a lyophilizer overnight to remove traces of organic solvent. To the dry lipid mixture were added 9 ml of water. The preparation was incubated for 1 hr at 45°-50° C. with occasional vortexing. Then, in some samples, […] of dry test peptide were added to the aqueous preparation. The preparations were mildly sonicated with and without peptide in a cleaning bath sonicator (Branson 1200) at 45°-50° C. for 2 h to promote peptide dispersion and peptide-lipid interactions. The resulting lipid-peptide mixtures were divided into three parts, lyophilized and stored at -20° C.\nThe experimental procedures for animal preparation, pressure-volume curve registration and lung lavage have been described by the rat lung model (Ikegami, et al., (1979) Pediatr. Res. 13, 777-780) as modified by McLean et al., Am. J. Physiol. (1992), L292-L300. Briefly, the lungs of adult rats were suspended in 0.9% saline at 37° C. were connected to a water manometer and an air-filled syringe by a T-tube. The deflation limb of a pressure-volume curve was recorded prior to lavage, after extensive lavage with 0.9% NaCl, 10 mM HEPES, pH 7.4 and after administration of surfactant mixtures in 2 ml of 0.9% NaCl, 10 mM HEPES buffer, pH 7.40. The deflation limbs of the pressure-volume (P-V) curves in adult rat lungs were analyzed by calculating the total lung capacities (% TLC) at 5 and 10 cm H2 O pressure (PC5 and PC10). The per cent of total lung capacities at 5 and 10 cm of H2 O (PC5 and PC10) were measured after addition of the synthetic lung surfactants to adult rat lavaged lungs at a dose of 25 mg of lipid (32 umoles) and 1 mg of peptide. Restorations are based on PC5. […] Comparisons were based on restoration,i.e. for PC5, ([…])×100%/(PC5.sbsb.(sufficient) -PC5.sbsb.(deficient)) and made by one-way analysis of variance using the GLM procedure with specific contrasts of the means (SAS Institute Inc., Cary, N.C.).\nReferences, consisting of DPPC alone and dog lung surfactant, respectively,were employed as reference standards: Reference I was prepared as follows. DPPC was purchased from Avanti Polar Lipids. 25 mg of DPPC in chloroform was dried under a stream of nitrogen and lyophilized to remove traces of organic solvent. To the dry lipid mixture was added 3 ml of water. The preparation was incubated at 45° C. for 1 hour with ultrasonication in a bath sonicator. The lipid was lyophilized, stored at 4° C. for up to one week and mixed with 9 ml of 0.9% NaCl, 20 mM HEPES buffer, pH 7.40. […]", "key": {"[1]": {"details": "deflation limb of P-V curve, adult rat lavaged lungs, dose 25 mg lipid and 1 mg peptide, mean ± S.E."}}}
{"smiles": "CCCCCCCCCCCCCCCC(=O)OC[C@H](COP(=O)([O-])OCC[N+](C)(C)C)OC(=O)CCCCCCCCCCCCCCC", "note": "[Reference I, L-α-dipalmitoylphosphatidylcholine]", "values": [{"measurement": "effect on improving the compliance of the rat lung", "setting": "adult rat lung model, stated in words", "result": "no effect"}, {"measurement": "Restoration (%)", "setting": "based on PC5 relative to sufficient and deficient lungs, mean ± S.E.", "result": "-11 ± 8", "unit": "%"}, {"measurement": "PC5 (% TLC), per cent of total lung capacity at 5 cm H2O", "setting": "[1]", "result": "13 ± 1", "unit": "% TLC"}, {"measurement": "PC10 (% TLC), per cent of total lung capacity at 10 cm H2O", "setting": "[1]", "result": "31 ± 2", "unit": "% TLC"}]}
